The text below walks through data of ChEMBL document CHEMBL3991601, “The target landscape of clinical kinase drugs” (Science, 2017).

Assay [1] deals with Mitotic checkpoint serine/threonine-protein kinase BUB1 (Homo sapiens, UniProt O43683).
Another assay addresses Adenosine kinase (Homo sapiens, UniProt P55263).
Assay [2] addresses Rho-associated protein kinase 1 (Homo sapiens, UniProt Q13464).
Assay [3] concerns the target T1, Non-receptor tyrosine-protein kinase TNK1 (Homo sapiens, UniProt Q13470).
T1 sequence (Q13470 whole entry): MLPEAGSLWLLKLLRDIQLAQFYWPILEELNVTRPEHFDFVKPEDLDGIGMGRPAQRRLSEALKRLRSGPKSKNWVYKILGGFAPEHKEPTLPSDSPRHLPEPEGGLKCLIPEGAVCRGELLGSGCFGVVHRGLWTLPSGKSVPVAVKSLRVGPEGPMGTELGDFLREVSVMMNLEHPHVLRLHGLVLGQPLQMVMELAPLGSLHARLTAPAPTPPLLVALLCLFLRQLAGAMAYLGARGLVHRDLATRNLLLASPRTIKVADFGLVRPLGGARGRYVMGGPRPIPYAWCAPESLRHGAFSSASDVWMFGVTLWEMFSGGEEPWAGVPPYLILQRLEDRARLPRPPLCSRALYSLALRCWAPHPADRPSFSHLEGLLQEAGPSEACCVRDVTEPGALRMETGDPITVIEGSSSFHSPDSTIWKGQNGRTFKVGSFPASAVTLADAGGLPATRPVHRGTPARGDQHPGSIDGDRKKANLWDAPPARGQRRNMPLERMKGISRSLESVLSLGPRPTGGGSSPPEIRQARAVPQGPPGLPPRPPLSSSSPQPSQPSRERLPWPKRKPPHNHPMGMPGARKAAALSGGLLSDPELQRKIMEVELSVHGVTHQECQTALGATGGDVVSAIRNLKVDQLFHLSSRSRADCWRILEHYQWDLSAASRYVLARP

Assay [4] has as its target Maternal embryonic leucine zipper kinase (Homo sapiens, UniProt Q14680).
The target of assay [5] is Cyclin-dependent kinase 17 (Homo sapiens, UniProt Q00537).
Assay [6] concerns the target T2, Dynamin-like GTPase OPA1, mitochondrial (Homo sapiens, UniProt O60313).
T2 sequence (O60313 whole entry): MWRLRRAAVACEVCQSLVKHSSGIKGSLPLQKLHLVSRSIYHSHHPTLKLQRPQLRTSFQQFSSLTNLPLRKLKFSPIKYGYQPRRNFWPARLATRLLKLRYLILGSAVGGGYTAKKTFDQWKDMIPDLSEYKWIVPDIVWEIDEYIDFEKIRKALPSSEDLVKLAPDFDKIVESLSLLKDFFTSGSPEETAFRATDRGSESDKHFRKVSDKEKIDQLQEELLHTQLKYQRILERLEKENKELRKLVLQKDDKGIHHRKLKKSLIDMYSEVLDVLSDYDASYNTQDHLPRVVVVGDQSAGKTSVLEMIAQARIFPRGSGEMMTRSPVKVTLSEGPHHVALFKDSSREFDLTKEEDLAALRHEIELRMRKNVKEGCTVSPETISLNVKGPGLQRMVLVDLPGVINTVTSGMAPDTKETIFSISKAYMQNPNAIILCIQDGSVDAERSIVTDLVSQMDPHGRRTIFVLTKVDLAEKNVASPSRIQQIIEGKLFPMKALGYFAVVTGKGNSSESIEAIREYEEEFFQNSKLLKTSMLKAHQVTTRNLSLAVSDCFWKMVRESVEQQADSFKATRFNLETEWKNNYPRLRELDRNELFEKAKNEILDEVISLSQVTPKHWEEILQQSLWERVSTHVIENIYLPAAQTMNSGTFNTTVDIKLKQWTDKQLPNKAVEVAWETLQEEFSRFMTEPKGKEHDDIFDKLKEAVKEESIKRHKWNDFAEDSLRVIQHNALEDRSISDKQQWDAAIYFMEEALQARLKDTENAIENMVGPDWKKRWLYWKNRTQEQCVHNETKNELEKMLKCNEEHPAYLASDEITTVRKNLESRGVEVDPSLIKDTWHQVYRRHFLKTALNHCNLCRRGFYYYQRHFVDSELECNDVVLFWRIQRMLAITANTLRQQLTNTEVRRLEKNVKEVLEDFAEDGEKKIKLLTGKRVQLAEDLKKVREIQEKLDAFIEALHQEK

Assay [7] addresses S-adenosylmethionine synthase isoform type-2 (Homo sapiens, UniProt P31153).
Assay [8] deals with Hepatocyte growth factor receptor (Homo sapiens, UniProt P08581).
In a further assay the target is T3, Scaffold protein ILK (Homo sapiens, UniProt Q13418).
T3 sequence (Q13418 whole entry): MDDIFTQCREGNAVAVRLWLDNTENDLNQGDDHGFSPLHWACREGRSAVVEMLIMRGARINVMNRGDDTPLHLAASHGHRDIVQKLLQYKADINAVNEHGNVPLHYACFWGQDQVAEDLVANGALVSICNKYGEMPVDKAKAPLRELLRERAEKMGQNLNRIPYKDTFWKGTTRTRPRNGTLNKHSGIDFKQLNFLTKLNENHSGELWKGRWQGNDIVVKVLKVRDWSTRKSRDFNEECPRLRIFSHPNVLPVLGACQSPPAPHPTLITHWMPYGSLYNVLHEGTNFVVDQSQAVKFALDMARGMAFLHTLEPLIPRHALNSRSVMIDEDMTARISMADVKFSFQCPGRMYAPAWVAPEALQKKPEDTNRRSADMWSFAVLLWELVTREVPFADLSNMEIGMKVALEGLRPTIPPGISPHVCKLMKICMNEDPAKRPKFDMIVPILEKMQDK

The target of assay [9] is Non-receptor tyrosine-protein kinase TYK2 (Homo sapiens, UniProt P29597).
Assay [10] addresses Mitogen-activated protein kinase kinase kinase kinase 4 (Homo sapiens, UniProt O95819).
The target of assay [11] is STE20-like serine/threonine-protein kinase (Homo sapiens, UniProt Q9H2G2).
The target in assay [12] is Ribosomal protein S6 kinase alpha-6 (Homo sapiens, UniProt Q9UK32).
The target of assay [13] is Dual specificity protein kinase CLK1 (Homo sapiens, UniProt P49759).
In assay [14] the target is Serine/threonine-protein kinase 26 (Homo sapiens, UniProt Q9P289).
Assay [15] concerns the target Proto-oncogene tyrosine-protein kinase Src (Homo sapiens, UniProt P12931).
Assay [16] has as its target 5'-AMP-activated protein kinase catalytic subunit alpha-1 (Homo sapiens, UniProt Q13131).

Structures can show the parent of a compound that is named as a salt. Calls of active or inactive are those of the source. Cut-off read from the data, not from the text of the source, for most assays here: actives have a measured Kd and inactives only a lower limit. Where only a bound is given, the exact number is not on record here.
Note: in the data inactive means no Kd found up to 30 µM.

5'-AMP-activated protein kinase catalytic subunit alpha-1, sequence (Q13131 whole entry): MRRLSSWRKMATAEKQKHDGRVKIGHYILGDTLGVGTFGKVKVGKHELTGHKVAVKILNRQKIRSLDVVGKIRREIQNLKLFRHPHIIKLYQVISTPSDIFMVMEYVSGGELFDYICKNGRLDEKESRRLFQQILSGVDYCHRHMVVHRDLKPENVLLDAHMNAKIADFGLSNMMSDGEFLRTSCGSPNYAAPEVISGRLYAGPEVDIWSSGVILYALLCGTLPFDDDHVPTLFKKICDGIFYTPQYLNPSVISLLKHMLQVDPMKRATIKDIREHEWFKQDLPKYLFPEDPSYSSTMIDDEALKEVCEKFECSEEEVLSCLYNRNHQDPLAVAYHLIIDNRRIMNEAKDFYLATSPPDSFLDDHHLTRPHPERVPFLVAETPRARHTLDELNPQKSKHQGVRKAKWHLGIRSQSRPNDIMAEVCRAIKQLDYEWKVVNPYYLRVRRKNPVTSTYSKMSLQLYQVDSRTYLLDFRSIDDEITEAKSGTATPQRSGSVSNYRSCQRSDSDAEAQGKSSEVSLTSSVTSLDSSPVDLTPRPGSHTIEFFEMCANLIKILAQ
Cyclin-dependent kinase 17, sequence (Q00537 whole entry): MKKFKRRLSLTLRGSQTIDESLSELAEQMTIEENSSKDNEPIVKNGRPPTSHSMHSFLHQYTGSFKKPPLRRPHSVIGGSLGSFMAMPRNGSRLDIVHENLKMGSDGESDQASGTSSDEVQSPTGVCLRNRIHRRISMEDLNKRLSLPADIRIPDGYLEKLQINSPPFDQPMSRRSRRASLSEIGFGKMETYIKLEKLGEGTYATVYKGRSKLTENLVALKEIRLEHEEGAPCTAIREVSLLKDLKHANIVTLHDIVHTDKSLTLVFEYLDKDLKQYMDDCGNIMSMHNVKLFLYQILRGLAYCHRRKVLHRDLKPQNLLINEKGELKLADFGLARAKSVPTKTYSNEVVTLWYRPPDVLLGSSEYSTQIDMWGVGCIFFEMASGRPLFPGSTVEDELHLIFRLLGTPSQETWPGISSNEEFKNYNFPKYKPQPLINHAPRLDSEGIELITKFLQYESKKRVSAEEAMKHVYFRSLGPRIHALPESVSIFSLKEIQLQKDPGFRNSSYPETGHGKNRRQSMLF
Adenosine kinase, sequence (P55263 whole entry): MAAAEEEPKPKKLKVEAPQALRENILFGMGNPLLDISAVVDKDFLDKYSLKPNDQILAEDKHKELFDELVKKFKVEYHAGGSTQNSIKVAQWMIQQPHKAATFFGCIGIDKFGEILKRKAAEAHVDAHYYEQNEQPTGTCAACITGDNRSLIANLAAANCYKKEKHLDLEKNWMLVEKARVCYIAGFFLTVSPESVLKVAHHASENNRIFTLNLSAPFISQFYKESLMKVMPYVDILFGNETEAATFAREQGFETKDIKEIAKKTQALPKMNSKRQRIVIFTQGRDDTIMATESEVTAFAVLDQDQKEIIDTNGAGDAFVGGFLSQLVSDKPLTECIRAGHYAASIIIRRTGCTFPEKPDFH
Hepatocyte growth factor receptor, sequence (P08581 whole entry): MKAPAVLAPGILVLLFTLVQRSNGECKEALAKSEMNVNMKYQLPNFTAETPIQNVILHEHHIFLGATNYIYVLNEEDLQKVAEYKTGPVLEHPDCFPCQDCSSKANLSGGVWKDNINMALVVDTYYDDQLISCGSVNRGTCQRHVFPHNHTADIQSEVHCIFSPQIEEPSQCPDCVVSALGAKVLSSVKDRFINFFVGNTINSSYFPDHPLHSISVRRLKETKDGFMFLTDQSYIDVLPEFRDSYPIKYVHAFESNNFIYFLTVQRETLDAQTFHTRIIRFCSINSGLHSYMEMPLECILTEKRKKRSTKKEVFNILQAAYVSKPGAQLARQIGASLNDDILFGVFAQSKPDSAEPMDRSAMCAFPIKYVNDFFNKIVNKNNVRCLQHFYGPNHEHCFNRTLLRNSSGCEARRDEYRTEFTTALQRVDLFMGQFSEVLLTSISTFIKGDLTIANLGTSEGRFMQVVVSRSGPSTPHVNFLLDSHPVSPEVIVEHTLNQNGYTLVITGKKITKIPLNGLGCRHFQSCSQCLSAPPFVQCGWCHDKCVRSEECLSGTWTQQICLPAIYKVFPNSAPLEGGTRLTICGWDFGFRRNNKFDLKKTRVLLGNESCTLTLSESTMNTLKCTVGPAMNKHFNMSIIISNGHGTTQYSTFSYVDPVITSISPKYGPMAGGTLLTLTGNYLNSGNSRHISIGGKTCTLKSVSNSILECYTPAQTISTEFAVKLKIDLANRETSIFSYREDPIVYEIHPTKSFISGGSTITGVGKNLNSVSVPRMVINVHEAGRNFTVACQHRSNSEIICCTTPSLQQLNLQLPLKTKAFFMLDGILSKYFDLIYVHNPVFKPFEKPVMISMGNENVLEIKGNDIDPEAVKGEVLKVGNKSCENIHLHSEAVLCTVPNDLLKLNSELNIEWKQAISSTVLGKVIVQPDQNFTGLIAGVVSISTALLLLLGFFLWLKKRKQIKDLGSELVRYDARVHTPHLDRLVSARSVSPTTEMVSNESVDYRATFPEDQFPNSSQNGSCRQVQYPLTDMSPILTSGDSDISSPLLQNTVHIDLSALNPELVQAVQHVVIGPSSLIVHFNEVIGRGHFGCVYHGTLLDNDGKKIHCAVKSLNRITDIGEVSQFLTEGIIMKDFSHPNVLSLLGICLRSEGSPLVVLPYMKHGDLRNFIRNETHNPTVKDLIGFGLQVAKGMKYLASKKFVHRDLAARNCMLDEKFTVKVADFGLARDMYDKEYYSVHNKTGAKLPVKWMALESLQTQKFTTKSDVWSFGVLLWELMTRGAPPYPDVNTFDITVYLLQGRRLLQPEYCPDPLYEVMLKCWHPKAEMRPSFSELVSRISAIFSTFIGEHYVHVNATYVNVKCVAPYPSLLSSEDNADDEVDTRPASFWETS
Mitotic checkpoint serine/threonine-protein kinase BUB1, sequence (O43683 whole entry): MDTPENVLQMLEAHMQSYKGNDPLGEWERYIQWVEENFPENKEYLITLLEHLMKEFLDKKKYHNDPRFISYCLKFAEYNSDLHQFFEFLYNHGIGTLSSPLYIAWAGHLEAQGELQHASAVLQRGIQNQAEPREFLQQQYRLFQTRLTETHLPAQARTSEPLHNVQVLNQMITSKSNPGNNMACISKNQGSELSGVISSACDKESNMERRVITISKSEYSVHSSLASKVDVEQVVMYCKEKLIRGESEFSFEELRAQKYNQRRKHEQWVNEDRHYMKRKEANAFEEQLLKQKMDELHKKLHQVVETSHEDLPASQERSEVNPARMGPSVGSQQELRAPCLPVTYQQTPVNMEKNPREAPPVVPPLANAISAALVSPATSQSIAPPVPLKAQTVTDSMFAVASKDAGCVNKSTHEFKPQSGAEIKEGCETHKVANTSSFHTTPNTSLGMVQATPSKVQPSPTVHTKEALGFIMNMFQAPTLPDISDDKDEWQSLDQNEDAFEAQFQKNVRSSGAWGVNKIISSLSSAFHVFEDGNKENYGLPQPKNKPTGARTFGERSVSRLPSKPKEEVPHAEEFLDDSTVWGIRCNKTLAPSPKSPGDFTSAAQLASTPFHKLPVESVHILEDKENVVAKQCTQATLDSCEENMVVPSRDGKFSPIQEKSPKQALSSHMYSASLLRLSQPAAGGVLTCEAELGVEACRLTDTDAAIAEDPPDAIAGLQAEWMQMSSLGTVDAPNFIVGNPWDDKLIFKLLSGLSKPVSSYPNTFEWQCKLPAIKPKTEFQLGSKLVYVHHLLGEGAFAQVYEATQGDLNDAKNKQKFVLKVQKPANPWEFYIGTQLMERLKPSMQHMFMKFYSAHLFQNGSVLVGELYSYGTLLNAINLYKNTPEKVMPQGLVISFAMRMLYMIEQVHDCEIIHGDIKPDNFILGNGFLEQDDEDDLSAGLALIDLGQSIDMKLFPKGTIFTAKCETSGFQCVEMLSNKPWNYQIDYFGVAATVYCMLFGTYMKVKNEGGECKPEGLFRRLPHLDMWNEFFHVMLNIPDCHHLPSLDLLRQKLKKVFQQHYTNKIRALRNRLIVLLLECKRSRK
Proto-oncogene tyrosine-protein kinase Src, sequence (P12931 2-536 limits assumed): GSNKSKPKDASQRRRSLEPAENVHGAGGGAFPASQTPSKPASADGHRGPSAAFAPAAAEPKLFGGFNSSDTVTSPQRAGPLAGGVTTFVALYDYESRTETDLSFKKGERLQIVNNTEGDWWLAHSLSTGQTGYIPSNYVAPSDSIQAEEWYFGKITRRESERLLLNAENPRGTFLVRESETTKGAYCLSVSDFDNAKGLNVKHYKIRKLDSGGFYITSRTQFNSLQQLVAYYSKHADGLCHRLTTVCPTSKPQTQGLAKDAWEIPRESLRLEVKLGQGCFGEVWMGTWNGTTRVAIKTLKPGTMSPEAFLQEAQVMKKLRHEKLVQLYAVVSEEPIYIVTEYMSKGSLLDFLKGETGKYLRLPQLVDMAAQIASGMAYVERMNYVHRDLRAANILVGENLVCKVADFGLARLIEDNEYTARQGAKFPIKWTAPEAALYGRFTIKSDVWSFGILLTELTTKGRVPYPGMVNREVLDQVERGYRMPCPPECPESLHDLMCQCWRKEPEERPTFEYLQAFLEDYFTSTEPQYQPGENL
Dual specificity protein kinase CLK1, sequence (P49759 whole entry): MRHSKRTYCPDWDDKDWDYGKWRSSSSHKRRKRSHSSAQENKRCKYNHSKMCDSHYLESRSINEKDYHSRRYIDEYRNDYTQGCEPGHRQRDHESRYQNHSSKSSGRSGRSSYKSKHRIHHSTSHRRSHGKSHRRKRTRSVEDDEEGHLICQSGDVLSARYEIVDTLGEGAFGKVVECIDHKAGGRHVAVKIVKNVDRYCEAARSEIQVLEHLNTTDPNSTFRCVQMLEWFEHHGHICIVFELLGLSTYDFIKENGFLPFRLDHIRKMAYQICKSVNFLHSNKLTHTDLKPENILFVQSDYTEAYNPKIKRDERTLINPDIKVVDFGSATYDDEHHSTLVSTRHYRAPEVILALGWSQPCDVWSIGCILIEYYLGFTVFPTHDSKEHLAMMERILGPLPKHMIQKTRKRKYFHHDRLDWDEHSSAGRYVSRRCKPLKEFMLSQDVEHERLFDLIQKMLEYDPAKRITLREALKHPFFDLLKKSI

For `COCc1c(-c2ccc(NC(=O)Nc3cc(C(F)(F)F)ccc3F)c(F)c2)c2c(N)ncnn2c1CN1CCOCC1`, the Kd in assay [1] was > 30 µM (inactive); at Adenosine kinase, > 30 µM (inactive); in assay [2], > 30 µM (inactive); in [3] it was 1.26 µM (active); in assay [4] it was > 30 µM (inactive); in [5], > 30 µM (inactive). Also, the Kd (in assay [6]; in assay [7]; in assay [8]; on Scaffold protein ILK; in assay [9]; in assay [10]) was > 30 µM (inactive) throughout. The Kd in assay [11] is > 30 µM (inactive); in assay [12], 2.69 µM (active); in [13], > 30 µM (inactive); in assay [14], > 30 µM (inactive); in assay [15] it was > 30 µM (inactive); in assay [16] it was > 30 µM (inactive).
`CCS(=O)(=O)N1CCN(c2ccc(Nc3ncc(C(N)=O)c(NC4CC4)n3)cc2)CC1` [Cerdulatinib Hydrochloride]: the Kd in assay [1] is 0.437 µM (active); in assay [2], > 30 µM (inactive); in assay [3], > 30 µM (inactive); in assay [4], > 30 µM (inactive); in assay [5] it was > 30 µM (inactive); in assay [6], > 30 µM (inactive). Moreover, the Kd in assay [7] was > 30 µM (inactive); in assay [8], > 30 µM (inactive); on Scaffold protein ILK, > 30 µM (inactive); in [9], 0.032 µM (active); in [10], 3.06 µM (active); in assay [11] it was > 30 µM (inactive). Also, the Kd in assay [12] is 0.455 µM (active); in assay [13] it was > 30 µM (inactive); in [14] it was 0.029 µM; in [15], > 30 µM (inactive); in assay [16], 10.8 µM (active).
In the case of `Cc1nc(Nc2n[nH]c3c2CN(C(=O)N[C@H](CN(C)C)c2ccccc2)C3(C)C)c2sccc2n1` [PF-03758309], the Kd in [1] is > 30 µM (inactive); on Adenosine kinase it was > 30 µM (inactive); in [2] it was > 30 µM (inactive); in [3], > 30 µM (inactive); in assay [4] it was 0.057 µM (active); in assay [5], 0.014 µM (active). Further, the Kd in [6], in assay [7], in assay [8], in [9], in [10] and in assay [11] was > 30 µM (inactive) in each case. For the same molecule, the Kd in [12] was 0.004 µM (active); in assay [13], 0.09 µM (active); in [14] it was 0.017 µM; in [15], 2.08 µM (active); in [16] it was 0.006 µM (active).
For `Cn1cc(-c2cnn3c(N)c(Br)c([C@@H]4CCCNC4)nc23)cn1` [SCH-900776], the Kd is > 30 µM (inactive) in [1]; > 30 µM (inactive) at Adenosine kinase; > 30 µM (inactive) in assay [2]; > 30 µM (inactive) in assay [3]; 4.69 µM (active) in assay [4]; > 30 µM (inactive) in assay [5]. The Kd in assay [6] is > 30 µM (inactive); in assay [7], > 30 µM (inactive); in assay [8] it was > 30 µM (inactive); in assay [9], > 30 µM (inactive); in assay [10], > 30 µM (inactive); in assay [11] it was 2.08 µM (active). The Kd in assay [12] was 1.27 µM (active); in assay [13], > 30 µM (inactive); in [14] it was > 30 µM (inactive); in assay [15] it was > 30 µM (inactive); in assay [16] it was > 30 µM (inactive).
As to `CC(C)c1cc(CNc2nc(Nc3cc(C4CC4)[nH]n3)cc(N3CCN(C)CC3)n2)on1` [XL-228], the Kd is > 30 µM (inactive) in [1]; > 30 µM (inactive) in assay [2]; 0.003 µM (active) in [3]; > 30 µM (inactive) in [4]; 0.005 µM in assay [5]; > 30 µM (inactive) in assay [6]. Moreover, the Kd is > 30 µM (inactive) in [7]; > 30 µM (inactive) in [8]; > 30 µM (inactive) on Scaffold protein ILK; > 30 µM (inactive) in [9]; > 30 µM (inactive) in assay [10]; 0.138 µM (active) in assay [11]. Moreover, the Kd in assay [12] was > 30 µM (inactive); in assay [13], > 30 µM (inactive); in assay [14] it was > 30 µM (inactive); in assay [15], 0.459 µM (active); in [16] it was 0.38 µM (active).
Take `CN1C/C=C/CCOc2cccc(c2)-c2ccnc(n2)Nc2cccc(c2)C1` [ZOTIRACICLIB]: the Kd was > 30 µM (inactive) on Adenosine kinase; 99.2 µM in [2]; > 30 µM (inactive) in assay [3]; > 30 µM (inactive) in assay [4]; > 30 µM (inactive) in assay [5]; > 30 µM (inactive) in assay [6]. The Kd in assay [7] is > 30 µM (inactive); in assay [8], > 30 µM (inactive); on Scaffold protein ILK, > 30 µM (inactive); in assay [9] it was > 30 µM (inactive); in assay [10] it was > 30 µM (inactive); in assay [11], 6.37 µM (active). The Kd in [12], in [13], in assay [14], in assay [15] and in [16] was > 30 µM (inactive) throughout.
